Data taken from US20250144067A1, “PERSONALIZED STARVATION THERAPY FOR CANCER” (Faeth Therapeutics, Inc., priority 2021, published 2025).
Where a name gives a salt, the structure may show the parent alone. Read-outs that look alike come from different tables or passages of the source. Peptide text beside a SMILES is read from it.

Assays:
[1] = system: NCI-H292 lung cancer cells; experiment: FDA drug screening, complete media vs cholesterol-free media with simvastatin (TABLE 2); format: cell-based, human
[2] = system: NCI-H292 lung cancer cells; experiment: FDA drug screening, complete media vs cholesterol-free media without statin (TABLE 1); format: cell-based, human
[3] = NCI-H292 cells, FDA drug library screen, cholesterol-free media with simvastatin 0.04 μM
[4] = NCI-H292 cells, FDA drug library screen, complete media
[5] = complete media minus cholesterol-free media + simvastatin, >0 enhanced anti-cancer activity, about 0 neutral, <0 antagonist
[6] = NCI-H292 cells, cholesterol-free media without statin, FDA drug library screen
[7] = NCI-H292 cells, complete media, FDA drug library screen
[8] = complete vs cholesterol-free media, >0 enhanced anti-cancer activity, about 0 neutral, <0 antagonist
[9] = NCI-H292 cells, cholesterol-free media with simvastatin 0.04 μM, cell growth value in FDA drug screen
[10] = NCI-H292 cells, complete media, cell growth value in FDA drug screen
[11] = Complete minus Cholesterol-free, greater than 0 enhanced anti-cancer activity, about 0 neutral, below 0 antagonist
[12] = NCI-H292 cells, FDA drug library screen, cholesterol-free media without statin
[13] = NCI-H292 cells, FDA library drug in cholesterol-free media with simvastatin 0.04 μM
[14] = NCI-H292 cells, FDA library drug in complete media
[15] = complete media vs cholesterol-free media + simvastatin (0.04 μM), >0 enhanced anti-cancer activity, about 0 neutral, <0 antagonist
[16] = NCI-H292 cells, cholesterol-free media without statin
[17] = complete vs cholesterol-free media, greater than 0 enhanced anti-cancer activity, about 0 neutral, below 0 antagonists
[18] = NCI-H292 cells, drug in cholesterol-free media with simvastatin 0.04 μM
[19] = NCI-H292 cells, drug in complete media
[20] = complete media vs cholesterol-free media + simvastatin (0.04 μM), […]

Question: With C#C[C@]1(O)CC[C@H]2[C@@H]3CCC4=CC(=O)CC[C@@H]4[C@H]3CC[C@@]21C [Norethindrone] as the compound, how does the “Cholesterol-free media + simvastatin (0.04 μM)” value [1, 3] read?
Answer: Its value is 0.8746.

Question: What about the “Complete Media” value [1, 4] of the same compound?
Answer: Its value is 1.458.

Question: And the Difference [1, 5]?
Answer: The Difference was 0.58.

Question: What about the Cholesterol-free [2, 6] of the same compound?
Answer: Its Cholesterol-free is 1.186.

Question: And the Complete [2, 7]?
Answer: The Complete was 1.412.

Question: And the Difference [2, 8]?
Answer: Its Difference is 0.23.

Question: For N=C(N)c1ccc(OCCCCCOc2ccc(C(=N)N)cc2)cc1.O=S(=O)(O)CCO.O=S(=O)(O)CCO [Pentamidine (isethionate)], which “Cholesterol-free media + simvastatin (0.04 μM)” value [1, 9] is on record?
Answer: Its value is 0.3285.

Question: What about the “Complete Media” value [1, 10] of the same compound?
Answer: Its value is 0.4548.

Question: And the Difference [1, 5]?
Answer: Its Difference is 0.13.

Question: What about the Difference [2, 11] of the same compound?
Answer: The Difference was −0.17.

Question: And the Cholesterol-free [2, 12]?
Answer: Its Cholesterol-free is 0.6432.

Question: What about the Complete [2, 4] of the same compound?
Answer: The Complete was 0.4688.

Question: For CNCC[C@H](Oc1cccc2ccccc12)c1cccs1 [Duloxetine (hydrochloride)], which “Cholesterol-free media + simvastatin (0.04 μM)” value [1] is on record?
Answer: The value was 1.089.

Question: What about the “Complete Media” value [1] of the same compound?
Answer: Its value is 1.143.

Question: What about the Difference [1] of the same compound?
Answer: Its Difference is 0.05.

Question: And the Cholesterol-free [2]?
Answer: Its Cholesterol-free is 1.331.

Question: And the Complete [2]?
Answer: The Complete was 1.434.

Question: What about the Difference [2] of the same compound?
Answer: The Difference was 0.10.

Question: For CN(C)[C@@H]1C(O)=C(C(N)=O)C(=O)[C@@]2(O)C(O)=C3C(=O)c4c(O)ccc(Cl)c4[C@@](C)(O)[C@H]3C[C@@H]12 [Chlortetracycline (hydrochloride)], which “Cholesterol-free media + simvastatin (0.04 μM)” value [1, 13] is on record?
Answer: Its value is 1.491.

Question: And the “Complete Media” value [1, 14]?
Answer: The value was 1.106.

Question: And the Difference [1, 15]?
Answer: Its Difference is −0.38.

Question: What about the Cholesterol-free [2, 16] of the same compound?
Answer: The Cholesterol-free was 1.583.

Question: What about the Complete ([2]; NCI-H292 cells, complete media) of the same compound?
Answer: The Complete was 1.205.

Question: And the Difference [2, 17]?
Answer: Its Difference is −0.38.

Question: With CNC(=O)c1ccccc1Sc1ccc2c(/C=C/c3ccccn3)n[nH]c2c1 [Axitinib] as the compound, how does the “Cholesterol-free media + simvastatin (0.04 μM)” value [1, 18] read?
Answer: The value was 0.9239.

Question: And the “Complete Media” value [1, 19]?
Answer: Its value is 0.7152.

Question: What about the Difference [1, 15] of the same compound?
Answer: The Difference was −0.21.

Question: What about the Cholesterol-free [2, 6] of the same compound?
Answer: Its Cholesterol-free is 0.7104.

Question: And the Complete [2, 7]?
Answer: Its Complete is 1.034.

Question: And the Difference [2, 8]?
Answer: The Difference was 0.32.

Question: Prucalopride (succinate) was tested. Which “Cholesterol-free media + simvastatin (0.04 μM)” value [1, 3] did it give?
Answer: Its value is 1.172.

Question: And the “Complete Media” value [1, 4]?
Answer: The value was 1.048.

Question: And the Difference [1, 15]?
Answer: Its Difference is −0.12.

Question: And the Cholesterol-free [2, 16]?
Answer: The Cholesterol-free was 1.329.

Question: What about the Complete ([2]; NCI-H292 cells, complete media) of the same compound?
Answer: Its Complete is 0.905.

Question: What about the Difference [2, 17] of the same compound?
Answer: The Difference was −0.42.

Question: Which “Cholesterol-free media + simvastatin (0.04 μM)” value [1, 9] does the source give for N#Cc1ccc2[nH]cc(CCCCN3CCN(c4ccc5oc(C(N)=O)cc5c4)CC3)c2c1 [Vilazodone] here?
Answer: The value was 0.8049.

Question: What about the “Complete Media” value [1, 10] of the same compound?
Answer: The value was 0.9107.

Question: And the Difference [1, 5]?
Answer: The Difference was 0.11.

Question: What about the Cholesterol-free [2, 6] of the same compound?
Answer: Its Cholesterol-free is 0.8843.

Question: What about the Complete [2, 7] of the same compound?
Answer: The Complete was 1.054.

Question: What about the Difference [2, 8] of the same compound?
Answer: The Difference was 0.17.

Question: Edoxaban (tosylate monohydrate) was tested. Which “Cholesterol-free media + simvastatin (0.04 μM)” value [1, 18] did it give?
Answer: Its value is 1.271.

Question: And the “Complete Media” value [1, 19]?
Answer: The value was 1.053.

Question: What about the Difference [1, 20] of the same compound?
Answer: The Difference was −0.22.

Question: And the Cholesterol-free [2, 6]?
Answer: Its Cholesterol-free is 0.765.

Question: What about the Complete [2, 7] of the same compound?
Answer: The Complete was 0.9385.

Question: And the Difference ([2]; complete vs cholesterol-free media, […])?
Answer: Its Difference is 0.17.

Question: For O=C(NCc1c(F)cc(F)cc1F)c1cn2c(c(O)c1=O)C(=O)N1[C@H]3CC[C@H](C3)O[C@@H]1C2 [Bictegravir], which “Cholesterol-free media + simvastatin (0.04 μM)” value [1, 18] is on record?
Answer: The value was 1.109.

Question: And the “Complete Media” value [1, 19]?
Answer: The value was 0.9083.

Question: And the Difference [1, 15]?
Answer: Its Difference is −0.20.

Question: What about the Cholesterol-free [2, 16] of the same compound?
Answer: Its Cholesterol-free is 1.057.

Question: And the Complete ([2]; NCI-H292 cells, complete media)?
Answer: Its Complete is 0.7123.

Question: And the Difference [2, 17]?
Answer: The Difference was −0.34.

Question: How did the “Cholesterol-free media + simvastatin (0.04 μM)” value [1, 13] turn out when CC(C)C[C@@H](N)C(=O)N[C@H]1C(=O)N[C@@H](CC(N)=O)C(=O)N[C@H]2C(=O)N[C@H]3C(=O)N[C@H](C(=O)N[C@H](C(=O)O)c4cc(O)cc(O)c4-c4cc3ccc4O)[C@H](O)c3ccc(c(Cl)c3)Oc3cc2cc(c3O[C@@H]2O[C@H](CO)[C@@H](O)[C@H](O)[C@H]2O[C@H]2C[C@](C)(N)[C@H](O)[C@H](C)O2)Oc2ccc(cc2Cl)[C@H]1O.Cl [Norvancomycin (hydrochloride)] was run?
Answer: The value was 1.335.

Question: What about the “Complete Media” value [1, 14] of the same compound?
Answer: Its value is 0.8954.

Question: What about the Difference [1, 20] of the same compound?
Answer: Its Difference is −0.44.

Question: What about the Difference ([2]; Complete minus Cholesterol-free, […]) of the same compound?
Answer: The Difference was −0.07.

Question: What about the Cholesterol-free [2, 12] of the same compound?
Answer: Its Cholesterol-free is 1.244.

Question: With COc1cc(N)c(Cl)cc1C(=O)NC1CCN(CCCOc2ccc(F)cc2)CC1OC (centres unmarked) [Cisapride] as the compound, how does the “Cholesterol-free media + simvastatin (0.04 μM)” value [1, 3] read?
Answer: The value was 1.001.

Question: And the “Complete Media” value [1, 4]?
Answer: The value was 0.8916.

Question: And the Difference [1, 15]?
Answer: Its Difference is −0.11.

Question: What about the Difference ([2]; Complete minus Cholesterol-free, greater than 0 enhanced anti-cancer activity, about 0 neutral, below 0 antagonists) of the same compound?
Answer: Its Difference is −0.91.

Question: What about the Cholesterol-free ([2]; NCI-H292 cells in cholesterol-free media without statin) of the same compound?
Answer: Its Cholesterol-free is 1.595.

Question: What about the Complete ([2]; NCI-H292 cells in complete media) of the same compound?
Answer: The Complete was 0.6865.

Question: With CC(C)(C)NCC(O)CSc1nc(-c2ccc(C(N)=O)s2)cs1 (centres unmarked) [Arotinolol] as the compound, how does the “Cholesterol-free media + simvastatin (0.04 μM)” value [1, 3] read?
Answer: Its value is 1.158.

Question: And the “Complete Media” value [1, 4]?
Answer: The value was 1.017.

Question: What about the Difference [1, 15] of the same compound?
Answer: The Difference was −0.14.

Question: And the Difference [2, 11]?
Answer: Its Difference is −0.18.

Question: What about the Cholesterol-free [2, 12] of the same compound?
Answer: Its Cholesterol-free is 1.165.

Question: And the Complete [2, 4]?
Answer: The Complete was 0.9888.

Question: For COC(=O)[C@H](Cc1ccccc1)NC(=O)[C@@H](N)CC(=O)O [Aspartame] (HELM PEPTIDE1{D.F.[CO[*:1]]}$$$$V2.0), which “Cholesterol-free media + simvastatin (0.04 μM)” value [1, 18] is on record?
Answer: Its value is 1.165.

Question: And the “Complete Media” value [1, 19]?
Answer: The value was 0.9998.

Question: And the Difference [1, 15]?
Answer: Its Difference is −0.17.

Question: What about the Difference ([2]; Complete minus Cholesterol-free, >0 enhanced anti-cancer activity, about 0 neutral, <0 antagonist) of the same compound?
Answer: The Difference was −0.06.

Question: And the Cholesterol-free [2, 6]?
Answer: The Cholesterol-free was 1.044.

Question: What about the Complete [2, 7] of the same compound?
Answer: The Complete was 0.9887.

Question: Which “Cholesterol-free media + simvastatin (0.04 μM)” value [1, 18] does the source give for COC(=O)[C@@H]1CC2=CC(=O)CC[C@]2(C)[C@@]23O[C@@H]2C[C@@]2(C)[C@@H](CC[C@@]24CCC(=O)O4)[C@H]13 [Eplerenone] here?
Answer: The value was 1.039.

Question: And the “Complete Media” value [1, 19]?
Answer: Its value is 0.8449.

Question: What about the Difference [1, 15] of the same compound?
Answer: Its Difference is −0.19.

Question: And the Cholesterol-free [2, 6]?
Answer: The Cholesterol-free was 1.018.

Question: And the Complete [2, 7]?
Answer: Its Complete is 1.291.

Question: What about the Difference [2, 8] of the same compound?
Answer: Its Difference is 0.27.
